Here are results for twelve compounds from US11072617B2, “Bicyclic sulfones and sulfoxides and methods of use thereof” (Genentech, Inc., priority 2017, dated 2021).

In this experiment the target is human RIP1 kinase domain (2-375) (Homo sapiens (Human), UniProt Q13546). Nature of the experiment: RIP1 kinase inhibition biochemical assay (Transcreener ADP, fluorescence polarization). The conditions noted are these: Ki app from tight-binding Morrison equation; 50 nM enzyme, 50 uM ATP, 2 hours incubation. The procedure, abridged: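 Baculovirus-expressed human RIP1 kinase domain (2-375), 50 nM, incubated 2 h with compounds in pH 7.5 Hepes, 30 mM MgCl2, 50 uM ATP, 0.5% DMSO. ADP detected by Transcreener fluorescence-polarization tracer displacement; Ki^app from Morrison tight-binding fit.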
For orientation: In fluorescence polarisation assays a small probe gives low polarisation when free and higher when bound to something large.

Some results are limits rather than exact numbers.

human RIP1 kinase domain (2-375), sequence (Q13546 2-375): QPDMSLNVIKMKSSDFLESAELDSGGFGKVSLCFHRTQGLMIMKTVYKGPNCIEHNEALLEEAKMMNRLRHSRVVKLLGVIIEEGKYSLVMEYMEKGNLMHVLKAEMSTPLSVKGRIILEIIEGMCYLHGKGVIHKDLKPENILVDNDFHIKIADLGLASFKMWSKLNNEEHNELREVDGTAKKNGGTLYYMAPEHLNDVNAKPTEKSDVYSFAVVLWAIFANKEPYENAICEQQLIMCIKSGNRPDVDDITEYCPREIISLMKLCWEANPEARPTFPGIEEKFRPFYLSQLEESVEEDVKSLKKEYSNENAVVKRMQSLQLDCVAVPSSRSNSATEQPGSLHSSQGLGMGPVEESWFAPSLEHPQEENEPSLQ

On to `[O-][S@+](c1nc2n(n1)[C@H](c1ccccc1)C[C@@H]2F)C(F)F` [Example 22, (5S,7S)-2-[(R)-difluoromethylsulfinyl]-7-fluoro-5-phenyl-6,7-dihydro-5H-pyrrolo[1,2-b][1,2,4]triazole], for which the Ki came to 3 nM.

Take `O=S(=O)(c1nc2n(n1)[C@H](c1ccccc1F)C[C@@H]2F)[C@H]1CC1(F)F` (single isomer, unassigned) [Example 119]: the Ki was 7 nM. To `O=S(=O)(c1nc2n(n1)[C@H](c1ccccc1)C[C@@H]2F)C1COC1` (single isomer, unassigned) [Example 228] belongs 6 nM. To `O=S(=O)(c1nc2n(n1)[C@H](c1cc(F)cc(F)c1)C[C@@H]2F)[C@H]1C[C@H](F)C1` (single isomer, unassigned) [Example 193] belongs 23 nM.

`O=S(=O)(c1nc2n(n1)[C@@H](c1cccc(F)c1F)C[C@H]2F)C1CC1` (single isomer, unassigned) [Example 36]: the Ki amounted to 880 nM. The value for `O=S(=O)(c1nc2n(n1)[C@H](c1cccc(F)c1F)C[C@@H]2F)[C@H]1CC1(F)F` [Example 121, (5S,7S)-2-(2,2-difluorocyclopropyl)sulfonyl-5-(2,3-difluorophenyl)-7-fluoro-6,7-dihydro-5H-pyrrolo[1,2-b][1,2,4]triazole] was < 5 nM. Turning to `CC(C)(C)S(=O)(=O)c1nc2n(n1)[C@H](c1ccccc1)C[C@@H]2F` (single isomer, unassigned) [Example 25], the Ki turned out to be 32 nM. Regarding `[O-][S@+](CF)c1nc2n(n1)[C@H](c1cccc(F)c1F)C[C@@H]2F` (single isomer, unassigned) [Example 77], the Ki was 280 nM. Compound `O=S(=O)(CC1CC1)c1nc2n(n1)[C@H](c1ccccc1)C[C@@H]2F` (single isomer, unassigned) [Example 112] yielded a Ki of 60 nM. The value for `CC[S@@+]([O-])c1nc2n(n1)[C@H](c1ccccc1)C[C@@H]2F` (single isomer, unassigned) [Example 188] was 510 nM; that for `O=S(=O)(c1nc2n(n1)[C@H](c1cccc(F)c1)C[C@@H]2F)[C@H]1C[C@H](F)C1` (single isomer, unassigned) [Example 226] was 9.3 nM; that for `CC(C)(C#N)[S+]([O-])c1nc2n(n1)[C@H](c1ccccc1)C[C@@H]2F` (stereo partly drawn) [Example 103, 2-[[(5S,7S)-7-fluoro-5-phenyl-6,7-dihydro-5H-pyrrolo[1,2-b][1,2,4]triazol-2-yl]sulfinyl]-2-methyl-propanenitrile] was 150 nM.
